Experimental data reported in patent publication US10532066B2, “Surfactant lipids, compositions thereof, and uses thereof” (National Jewish Health, priority 2007, dated 2020).

Assays:
Format in all cases: cell-based
TLR2 = TLR2 (Homo sapiens, UniProt O60603); experiment: TLR agonist IL-8 production in BEAS2B epithelial cells, TLR2; parameters: endogenous in cells; host or cells: BEAS2B; conditions: Mycoplasma pneumoniae membranes, 48 h
Description: (§1) In this experiment, multiple TLRs were stimulated with defined TLR agonists for 48 h, and the IL-8 production was measured. In each case, the maximal stimulation by agonist is set at 100% and the antagonism by POPG or PI is expressed as the relative % response. The Controls consist of no treatment, or treatment with POPG, or phosphatidylcholine (POPC), or phosphatidylinositol (PI), in the absence of agonist as indicated. The agonists for the TLRs consist of Pam3Cys for TLR1/2, Mycoplasma pneumoniae membranes as an agonist for TLR2, Mycoplasma fermentans derived MALP2 as an agonist for TLR 2/6, double stranded RNA (poly IC) for TLR3, and bacterial flagellin (Fla) as an agonist for TLR5.
(§2) Monolayers of BEAS2B cells were challenged with the TLR1/2 agonist, Pam3Cys (25 ug/ml); the TLR 2/6 agonist MALP2 (10 ng/ml); the TLR2 agonist mycoplasma membrane (Mem) (1 ug/ml); the TLR3 agonist, poly I:C (0.1 ug/ml); and the TLR5 agonist, flagellin (100 ng/ml). For each agonist parallel incubations were performed containing 200 ug/ml POPG as liposomes, or 200 ug/ml POPG as nanodises as indicated.

RAW264.7 cells = experiment: BODIPY-LPS association with RAW264.7 macrophages (FACScan); conditions: BODIPY-LPS 1 μg/ml, liposomes 200 μg/ml, 4 h
Description: FIG. 11. Anionic phospholipids block BODIPY-LPS association with RAW264.7 macrophages. Liposomes were prepared by bath-sonication at room temperature for 30 min. RAW264.7 cells (10^6/tube) were incubated either without or with 1 μg/ml BODIPY-LPS in the presence or absence of liposomes (200 μg/ml) at 4° C. for 4 h. Subsequently the cells were washed by centrifugation and the cell associated fluorescence was quantified by FACScan. […] In panel B the mean fluorescence intensity (MFI) ratio of cells plus LPS/cells without LPS is plotted against different phospholipid treatments. Values shown in B are means±SE for three independent experiments with duplicate determinations in each experiment. Significance—* p<0.05, ** p<0.01
RAW264.7 cells (10^6) were incubated with BODIPY-LPS (1 μg/ml) either with or without phospholipid liposomes (200 μg/ml) at 4° C. for 4 h. When liposomes were added, […] preceded the addition of fluorescent LPS. After the cells were washed with PBS by centrifugation, cell adherent fluorescence was determined using FACScan. Macrophages were counted for 20,000 cells and the graph was made by CellQuest software.

TLR3 = target: T1, TLR3 (Homo sapiens, UniProt O15455); experiment: TLR agonist IL-8 production in BEAS2B epithelial cells, TLR3; parameters: endogenous in cells; host or cells: BEAS2B; conditions: poly IC, 48 h
T1 sequence (O15455 24-904): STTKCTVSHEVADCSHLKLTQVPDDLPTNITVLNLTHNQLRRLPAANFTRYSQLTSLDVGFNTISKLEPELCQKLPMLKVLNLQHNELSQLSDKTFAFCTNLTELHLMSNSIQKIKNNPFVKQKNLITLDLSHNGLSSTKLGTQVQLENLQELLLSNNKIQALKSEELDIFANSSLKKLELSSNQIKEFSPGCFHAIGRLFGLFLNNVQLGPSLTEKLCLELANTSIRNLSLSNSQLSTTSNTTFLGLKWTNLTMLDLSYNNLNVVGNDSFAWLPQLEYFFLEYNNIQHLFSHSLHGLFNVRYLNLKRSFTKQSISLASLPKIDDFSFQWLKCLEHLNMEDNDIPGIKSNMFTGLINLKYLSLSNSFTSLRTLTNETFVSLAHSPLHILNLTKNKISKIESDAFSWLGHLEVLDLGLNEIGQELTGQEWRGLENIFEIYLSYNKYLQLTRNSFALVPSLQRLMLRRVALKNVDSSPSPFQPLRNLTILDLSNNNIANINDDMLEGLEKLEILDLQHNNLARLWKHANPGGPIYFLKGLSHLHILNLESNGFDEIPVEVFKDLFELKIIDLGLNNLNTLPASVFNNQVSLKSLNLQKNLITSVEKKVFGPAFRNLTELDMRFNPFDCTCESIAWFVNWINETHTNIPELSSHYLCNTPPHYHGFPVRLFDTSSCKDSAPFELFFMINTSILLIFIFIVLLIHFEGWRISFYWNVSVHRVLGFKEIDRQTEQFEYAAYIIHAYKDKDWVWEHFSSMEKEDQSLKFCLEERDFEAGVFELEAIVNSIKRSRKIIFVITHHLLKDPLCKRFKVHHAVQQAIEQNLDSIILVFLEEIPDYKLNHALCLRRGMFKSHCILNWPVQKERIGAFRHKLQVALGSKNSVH
Description: as §1, §2

TLR1 = target: T2, TLR1 (Homo sapiens, UniProt Q15399); experiment: TLR agonist IL-8 production in BEAS2B epithelial cells, TLR1; parameters: endogenous in cells; host or cells: BEAS2B; conditions: Pam3Cys, 48 h
T2 sequence (Q15399 25-786): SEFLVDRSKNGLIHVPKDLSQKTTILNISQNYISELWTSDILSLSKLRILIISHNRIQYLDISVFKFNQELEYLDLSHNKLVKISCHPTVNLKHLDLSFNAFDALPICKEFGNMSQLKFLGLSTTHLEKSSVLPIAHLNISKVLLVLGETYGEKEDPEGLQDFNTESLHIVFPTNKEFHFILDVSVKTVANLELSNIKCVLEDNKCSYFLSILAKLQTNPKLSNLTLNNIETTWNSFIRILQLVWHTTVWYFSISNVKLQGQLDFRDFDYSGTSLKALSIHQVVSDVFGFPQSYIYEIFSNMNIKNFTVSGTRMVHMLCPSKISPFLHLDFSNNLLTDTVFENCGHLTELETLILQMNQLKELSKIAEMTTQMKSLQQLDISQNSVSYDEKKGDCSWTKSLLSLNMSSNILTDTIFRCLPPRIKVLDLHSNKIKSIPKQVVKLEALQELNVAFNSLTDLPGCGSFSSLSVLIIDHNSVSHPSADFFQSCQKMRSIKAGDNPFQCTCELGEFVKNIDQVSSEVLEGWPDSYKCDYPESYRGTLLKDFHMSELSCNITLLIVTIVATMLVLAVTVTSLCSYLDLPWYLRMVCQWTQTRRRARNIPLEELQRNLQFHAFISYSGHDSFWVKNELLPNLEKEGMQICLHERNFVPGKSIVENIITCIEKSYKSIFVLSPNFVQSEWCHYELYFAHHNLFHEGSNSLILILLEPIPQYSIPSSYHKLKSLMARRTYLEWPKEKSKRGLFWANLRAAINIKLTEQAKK
Description: as §1, §2

TLR5 = target: T3, TLR5 (Homo sapiens, UniProt O60602); experiment: TLR agonist IL-8 production in BEAS2B epithelial cells, TLR5; conditions: flagellin, 48 h
T3 construct: endogenous in cells; host or cells: BEAS2B
T3 sequence (O60602 21-858): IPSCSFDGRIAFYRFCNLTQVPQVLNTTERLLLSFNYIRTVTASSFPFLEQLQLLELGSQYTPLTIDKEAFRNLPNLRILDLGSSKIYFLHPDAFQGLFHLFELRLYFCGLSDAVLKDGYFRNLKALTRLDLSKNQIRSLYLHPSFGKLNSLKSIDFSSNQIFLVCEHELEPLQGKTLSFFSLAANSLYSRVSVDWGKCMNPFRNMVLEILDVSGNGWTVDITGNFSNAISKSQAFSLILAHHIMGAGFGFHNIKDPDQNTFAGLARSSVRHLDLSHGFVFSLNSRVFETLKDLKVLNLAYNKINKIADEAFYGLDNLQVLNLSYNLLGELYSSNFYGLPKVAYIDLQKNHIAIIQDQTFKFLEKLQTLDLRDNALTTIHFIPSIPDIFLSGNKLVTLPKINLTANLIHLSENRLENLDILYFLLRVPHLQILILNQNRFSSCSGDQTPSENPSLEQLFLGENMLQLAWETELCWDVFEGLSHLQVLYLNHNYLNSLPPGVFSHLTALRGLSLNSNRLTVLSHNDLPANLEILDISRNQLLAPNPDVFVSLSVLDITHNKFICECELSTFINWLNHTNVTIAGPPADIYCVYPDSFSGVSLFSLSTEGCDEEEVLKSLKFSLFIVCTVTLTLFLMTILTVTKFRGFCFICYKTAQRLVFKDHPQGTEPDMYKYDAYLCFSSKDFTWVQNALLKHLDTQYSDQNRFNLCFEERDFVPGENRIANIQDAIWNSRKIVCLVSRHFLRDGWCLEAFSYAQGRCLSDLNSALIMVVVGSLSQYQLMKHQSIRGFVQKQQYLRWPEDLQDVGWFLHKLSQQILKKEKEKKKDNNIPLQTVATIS
Description: as §1, §2

Chain of TLR2 (O60603 21-784): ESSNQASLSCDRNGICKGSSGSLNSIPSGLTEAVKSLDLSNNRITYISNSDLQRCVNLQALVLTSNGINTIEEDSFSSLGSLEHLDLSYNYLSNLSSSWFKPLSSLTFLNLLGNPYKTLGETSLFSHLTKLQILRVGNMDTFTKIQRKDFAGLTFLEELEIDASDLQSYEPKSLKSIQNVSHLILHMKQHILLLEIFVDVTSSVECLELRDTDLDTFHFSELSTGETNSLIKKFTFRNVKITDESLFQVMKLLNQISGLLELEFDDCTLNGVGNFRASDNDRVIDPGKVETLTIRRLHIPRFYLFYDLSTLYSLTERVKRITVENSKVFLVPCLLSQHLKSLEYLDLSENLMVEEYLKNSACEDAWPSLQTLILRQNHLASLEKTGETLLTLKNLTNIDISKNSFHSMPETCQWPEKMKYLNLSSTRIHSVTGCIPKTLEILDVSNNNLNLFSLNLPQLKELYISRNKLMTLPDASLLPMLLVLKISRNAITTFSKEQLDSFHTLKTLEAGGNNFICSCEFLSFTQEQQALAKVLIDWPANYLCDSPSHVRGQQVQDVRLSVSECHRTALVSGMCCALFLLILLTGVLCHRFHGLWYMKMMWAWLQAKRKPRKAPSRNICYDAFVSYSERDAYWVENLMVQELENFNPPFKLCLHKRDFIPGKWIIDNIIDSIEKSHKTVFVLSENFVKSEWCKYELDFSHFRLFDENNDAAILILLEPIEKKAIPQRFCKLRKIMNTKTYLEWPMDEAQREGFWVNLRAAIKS

Row | Compound | activity of TLR2 (IL-8 production) (TLR2) | binding of BODIPY-LPS to the surface of macrophages (RAW264.7 cells) | activity of TLR3 (IL-8 production) (TLR3) | activity of TLR1 (IL-8 production) (TLR1) | activity of TLR5 (IL-8 production) (TLR5)
1 | CCCCCCCC/C=C\CCCCCCCC(=O)O[C@H](COC(=O)CCCCCCCCCCCCCCC)COP(=O)(O)OCC(O)CO (stereo partly shown) [POPG, palmitoyl-oleoyl-phosphatidylglycerol] | inhibit | blocks the binding | inhibit | inhibit | not
2 | phosphatidylinositol [PI] | inhibit | blocks the binding | inhibit | inhibit | not
